Laboratory results taken from PubChem BioAssay (NCI).
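At the GI50, growth is halved. TGI denotes the concentration required for complete inhibition of growth.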

How the values were obtained:
Assay in all cases: growth of human tumour cells (NCI), 384-well format
NCI-H23 lung = tested on: NCI-H23 lung
SR leukemia = tested on: SR leukemia
MCF7 breast = tested on: MCF7 breast
NCI-H522 lung = tested on: NCI-H522 lung
HCT-15 colon = tested on: HCT-15 colon
OVCAR-5 ovarian = tested on: OVCAR-5 ovarian
SK-MEL-5 melanoma = tested on: SK-MEL-5 melanoma
786-0 renal = tested on: 786-0 renal
M14 melanoma = tested on: M14 melanoma
HL-60(TB) leukemia = tested on: HL-60(TB) leukemia
SK-MEL-28 melanoma = tested on: SK-MEL-28 melanoma
PC-3 prostate = tested on: PC-3 prostate
MDA-MB-468 breast = tested on: MDA-MB-468 breast
MOLT-4 leukemia = tested on: MOLT-4 leukemia
DU-145 prostate = tested on: DU-145 prostate
SF-539 CNS = tested on: SF-539 CNS
KM12 colon = tested on: KM12 colon
OVCAR-4 ovarian = tested on: OVCAR-4 ovarian
SK-MEL-2 melanoma = tested on: SK-MEL-2 melanoma
MALME-3M melanoma = tested on: MALME-3M melanoma
MDA-MB-231 breast = tested on: MDA-MB-231 breast
K-562 leukemia = tested on: K-562 leukemia
T-47D breast = tested on: T-47D breast
OVCAR-3 ovarian = tested on: OVCAR-3 ovarian
UACC-62 melanoma = tested on: UACC-62 melanoma
SW-620 colon = tested on: SW-620 colon
SF-268 CNS = tested on: SF-268 CNS
ACHN renal = tested on: ACHN renal
EKVX NSCLC = tested on: EKVX NSCLC
HCT-116 colon = tested on: HCT-116 colon
SF-295 CNS = tested on: SF-295 CNS
UACC-257 melanoma = tested on: UACC-257 melanoma
RXF 393 renal = tested on: RXF 393 renal
A549 NSCLC = tested on: A549 NSCLC
UO-31 renal = tested on: UO-31 renal
HOP-92 NSCLC = tested on: HOP-92 NSCLC
COLO 205 colon = tested on: COLO 205 colon
HT29 colon = tested on: HT29 colon
OVCAR-8 ovarian = tested on: OVCAR-8 ovarian
CAKI-1 renal = tested on: CAKI-1 renal
SNB-19 CNS = tested on: SNB-19 CNS
NCI-H226 lung = tested on: NCI-H226 lung
A498 renal = tested on: A498 renal
TK-10 renal = tested on: TK-10 renal
NCI-H322M lung = tested on: NCI-H322M lung
HOP-62 NSCLC = tested on: HOP-62 NSCLC
U251 glioblastoma = tested on: U251 glioblastoma
NCI-H460 NSCLC = tested on: NCI-H460 NSCLC
SNB-75 CNS = tested on: SNB-75 CNS
MDA-MB-435 melanoma = tested on: MDA-MB-435 melanoma
SN12C renal = tested on: SN12C renal
IGROV1 ovarian = tested on: IGROV1 ovarian
BT-549 breast = tested on: BT-549 breast
SK-OV-3 ovarian = tested on: SK-OV-3 ovarian
HS 578T breast = tested on: HS 578T breast

In the case of `COc1cc2c(N3CCN(C(=O)Nc4ccc(OC(C)C)cc4)CC3)ncnc2cc1OCCCN1CCCCC1`, the GI50 (NCI-H23 lung) is reported as 12 µM, the TGI (NCI-H23 lung) is reported as 25.7 µM and the GI50 (SR leukemia) is reported as 1.93 µM. It also gave a TGI (SR leukemia) of 3.54 µM, a GI50 (MCF7 breast) of 3.18 µM and a TGI (MCF7 breast) of 15.1 µM. For the same compound, the GI50 (NCI-H522 lung) was 12.5 µM, the TGI (NCI-H522 lung) was 25 µM and the GI50 (HCT-15 colon) was 15.8 µM. It also gave a TGI (HCT-15 colon) of 29.5 µM, a GI50 (OVCAR-5 ovarian) of 13.1 µM and a TGI (OVCAR-5 ovarian) of 35 µM. For the same compound, the GI50 (SK-MEL-5 melanoma) was 9 µM, the TGI (SK-MEL-5 melanoma) was 21.1 µM and the GI50 ([…]-0 renal) was 8.32 µM. It also gave a TGI (786-0 renal) of 20.7 µM, a GI50 (M14 melanoma) of 12.3 µM and a TGI (M14 melanoma) of 24.9 µM. For the same compound, the GI50 (HL-60(TB) leukemia) was 15 µM, the TGI (HL-60(TB) leukemia) was 28.4 µM and the GI50 (SK-MEL-28 melanoma) was 12.3 µM. For the same compound, the TGI (SK-MEL-28 melanoma) was 24.8 µM, the GI50 (PC-3 prostate) was 10.8 µM and the TGI (PC-3 prostate) was 24 µM. For the same compound, the GI50 (MDA-MB-468 breast) was 3.91 µM, the TGI (MDA-MB-468 breast) was 14.5 µM and the GI50 (MOLT-4 leukemia) was 2.61 µM. For the same compound, the TGI (MOLT-4 leukemia) was 5.95 µM, the GI50 (DU-145 prostate) was 12.5 µM and the TGI (DU-145 prostate) was 26.3 µM. For the same compound, the GI50 (SF-539 CNS) was 1.84 µM, the TGI (SF-539 CNS) was 16.4 µM and the GI50 (KM12 colon) was 12.3 µM. For the same compound, the TGI (KM12 colon) was 25.1 µM, the GI50 (OVCAR-4 ovarian) was 13.9 µM and the TGI (OVCAR-4 ovarian) was 30.5 µM. For the same compound, the GI50 (SK-MEL-2 melanoma) was 3.78 µM, the TGI (SK-MEL-2 melanoma) was 12.8 µM and the GI50 (MALME-3M melanoma) was 5.03 µM. The TGI (MALME-3M melanoma) was 17.2 µM, the GI50 (MDA-MB-231 breast) was 13.6 µM and the TGI (MDA-MB-231 breast) was 31.4 µM. It also gave a GI50 (K-562 leukemia) of 3.31 µM, a TGI (K-562 leukemia) of 11.5 µM and a GI50 (T-47D breast) of 10.4 µM. It also gave a TGI (T-47D breast) of 22.3 µM, a GI50 (OVCAR-3 ovarian) of 14.3 µM and a TGI (OVCAR-3 ovarian) of 28.2 µM. For the same compound, the GI50 (UACC-62 melanoma) was 7.65 µM, the TGI (UACC-62 melanoma) was 20.6 µM and the GI50 (SW-620 colon) was 10.9 µM. For the same compound, the TGI (SW-620 colon) was 23.1 µM, the GI50 (SF-268 CNS) was 8.64 µM and the TGI (SF-268 CNS) was 21.1 µM. The GI50 (ACHN renal) was 9.76 µM, the TGI (ACHN renal) was 22.6 µM and the GI50 (EKVX NSCLC) was 5.21 µM. The TGI (EKVX NSCLC) was 19.5 µM, the GI50 (HCT-116 colon) was 9.38 µM and the TGI (HCT-116 colon) was 21.6 µM. For the same compound, the GI50 (SF-295 CNS) was 11.5 µM, the TGI (SF-295 CNS) was 23.8 µM and the GI50 (UACC-257 melanoma) was 1.99 µM. The TGI (UACC-257 melanoma) was 4.04 µM, the GI50 (RXF 393 renal) was 2.82 µM and the TGI (RXF 393 renal) was 9.78 µM. It also gave a GI50 (A549 NSCLC) of 14.1 µM, a TGI (A549 NSCLC) of 29 µM and a GI50 (UO-31 renal) of 16.4 µM. For the same compound, the TGI (UO-31 renal) was 30.1 µM, the GI50 (HOP-92 NSCLC) was 9.13 µM and the TGI (HOP-92 NSCLC) was 21.3 µM. It also gave a GI50 (COLO 205 colon) of 12.1 µM, a TGI (COLO 205 colon) of 24.7 µM and a GI50 (HT29 colon) of 3.24 µM. It also gave a TGI (HT29 colon) of 11.3 µM, a GI50 (OVCAR-8 ovarian) of 11.3 µM and a TGI (OVCAR-8 ovarian) of 32.3 µM. The GI50 (CAKI-1 renal) was 2.25 µM, the TGI (CAKI-1 renal) was 6.6 µM and the GI50 (SNB-19 CNS) was 16 µM. The TGI (SNB-19 CNS) was 41.6 µM, the GI50 (NCI-H226 lung) was 7.66 µM and the TGI (NCI-H226 lung) was 21.5 µM. It also gave a GI50 (A498 renal) of 5.09 µM, a TGI (A498 renal) of 17.3 µM and a GI50 (TK-10 renal) of 10.8 µM. The TGI (TK-10 renal) was 25.2 µM, the GI50 (NCI-H322M lung) was 12.1 µM and the TGI (NCI-H322M lung) was 32.7 µM. The GI50 (HOP-62 NSCLC) was 7.62 µM, the TGI (HOP-62 NSCLC) was 21.1 µM and the GI50 (U251 glioblastoma) was 11 µM. The TGI (U251 glioblastoma) was 23.1 µM, the GI50 (NCI-H460 NSCLC) was 2.48 µM and the TGI (NCI-H460 NSCLC) was 12.2 µM. For the same compound, the GI50 (SNB-75 CNS) was 9.87 µM, the TGI (SNB-75 CNS) was 21.6 µM and the GI50 (MDA-MB-435 melanoma) was 13 µM. For the same compound, the TGI (MDA-MB-435 melanoma) was 25.9 µM, the GI50 (SN12C renal) was 13.1 µM and the TGI (SN12C renal) was 26.2 µM. For the same compound, the GI50 (IGROV1 ovarian) was 13.4 µM, the TGI (IGROV1 ovarian) was 26.9 µM and the GI50 (BT-549 breast) was 8.6 µM. It also gave a TGI (BT-549 breast) of 20.8 µM, a GI50 (SK-OV-3 ovarian) of 12.5 µM and a TGI (SK-OV-3 ovarian) of 25.2 µM. For the same compound, the GI50 (HS 578T breast) was 4.87 µM and the TGI (HS 578T breast) was 17.9 µM.
